Measured values: publication PMC11530130, “Peripherally restricted PICK1 inhibitor mPD5 ameliorates pain behaviors in murine inflammatory and neuropathic pain models” (JCI Insight, 2024)
“And” between values parts separate entries of the source, which are not always exact repeats. Identical values can stand only once.

What was measured:
[1] = Solubility in PBS by visual inspection
Procedure: SUPPORTING INFORMATION: Method Section.
Sex as a biological variable.
All peptides were ordered from WuXI AppTec (Shanghai, China) or TAG-Copenhagen […]
Assessment of solubility and stability of mPD5.
Solubility was determined by visual inspection of samples dissolved in increasing concentration in 10 mM PBS as judged by full transparency and monophasic appearance.
Stability was addressed by […] for four concentrations (2, 20, 50, and 200 µM), by leaving mPD5 in PBS at 5 °C and 25 °C for 30 days followed by HPLC-UV-MS.
Protein expression and purification.
Full length rat PICK1 (pET41) was, as described earlier (1), expressed in BL21-DE3-pLysS and grown at 37 °C, induced at OD600= 0.6 with 1 mM IPTG, and grown for 16 hours at 20 °C.
Cultures were harvested and re-suspended in 50 mM Tris, 125 mM NaCl, 2 mM DTT (Sigma), 1% Triton X-100 (Sigma), 20 µg/mL DNAse 1 and half a tablet of cOmplete protease inhibitor cocktail (Roche) pr. 1 L culture. The resuspended pellets were frozen at -80 °C for later purification. […] PICK1 was eluted on ice and concentration was measured on a NanoDrop 3000.
Fluorescence polarization binding. […]
binding surface 96 well plates (Sigma-Aldrich, Ref. no. 3686). The plates were incubated 20 min on ice and the fluorescence polarization was measured on an Omega POLARstar plate reader (BMG LABTECH) using excitation filter of 485 nm and long pass emission filter of 520 nm. […]

[2] = tested on: mice, spared nerve injury (SNI) model; test: SNI model, marble-burying test; type: in vivo, mouse
Procedure: solution (0.05 mg/kg) injected s.c. 30 min before surgery (10 μL/g). For surgery, mice were anaesthetised with ketamine (100 mg/kg, i.p.) and xylazine (10 mg/kg, i.p.) (volume 10 µL/g) with 100 μL of 1% xylocaine solution infiltrated at the site of the incision. The distal trifurcation of the sciatic nerve was identified, and the tibial and common peroneal branches were ligated with polypropylene nonabsorbable 6-0 sutures (Ethicon) and 1 mm was cut out, leaving the sural branch intact. The wound was closed with sutures, and the animals were allowed to recover and returned to their cages. Two subcutaneous injections of buprenorphine (0.05 mg/kg) were performed with an 8 to 12 hours delay decreasing pain due to the surgery […]
Wounds were closed with surgical glue or medical clips and animals were monitored daily for signs of stress or discomfort, but in all cases recovered uneventfully. […]
For the first experiment with sustained administration of mPD5 (Figure 7C), the mice underwent a baseline von Frey reading as described in the “Mechanically-evoked pain (von Frey).”-section and SNI surgery as described in “Induction of neuropathic pain (SNI model).”-section. […] At 4,5 hours after the 10 μmol/kg mPD5 injection paw withdrawal threshold was measured again followed by a s.c. injection of 2 μmol/kg mPD5 in all animals. […]

In the case of `CCCCCCCCCCCCCC(=O)N(CCOCCOCCC(=O)N[C@@H](Cc1c[nH]cn1)C(=O)N[C@@H](Cc1c[nH]c2ccccc12)C(=O)N[C@@H](CC(C)C)C(=O)N[C@@H](CCCCN)C(=O)N[C@H](C(=O)O)C(C)C)CCOCCOCCC(=O)N[C@@H](Cc1c[nH]cn1)C(=O)N[C@@H](Cc1c[nH]c2ccccc12)C(=O)N[C@@H](CC(C)C)C(=O)N[C@@H](CCCCN)C(=O)N[C@H](C(=O)O)C(C)C` [mPD5, myristoyl-NPEG4-(HWLKV)2], the solubility [1] is reported as ≥ 250000 µg/mL and ~130000 µM, the “marbles buried, individual mice” value ([2]; 1 hour after s.c. 10 μmol/kg) is reported as 6 and 7 and 9 and 8 and 3 and 1 and 5 and the “effect on SNI-induced decrease in marble burying” value ([2]; female mice, s.c. 10 μmol/kg, to the level of the naive mice) is reported as “reverted significantly”.
